Data as given in the NIST ThermoML archive (doi:10.1016/j.jct.2013.04.021).

Assay: xn = mol fraction of the nth substance listed
Details: 101 kPa, Liquid; for mass density: Vibrating tube method; for speed of sound: fixed-path interferometer; for viscosity: Capillary tube (Ostwald / Ubbelohde) method

CCCCOCCO [2-butoxyethan-1-ol] + CCCCCCCCO
Details	mass density [kg/m3]	speed of sound [m/s]	viscosity [mPa·s]
293.15 K, x1 = 0.053	828.488	1361.8	–
293.15 K, x1 = 0.105	831.623	1359	–
293.15 K, x1 = 0.167	835.443	1355.4	–
293.15 K, x1 = 0.2004	837.529	1353.2	–
293.15 K, x1 = 0.2561	841.092	1350.3	–
293.15 K, x1 = 0.3039	844.242	1347.8	–
293.15 K, x1 = 0.4046	851.133	1342.7	–
293.15 K, x1 = 0.5013	858.109	1338.2	–
293.15 K, x1 = 0.6004	865.629	1334	–
293.15 K, x1 = 0.7009	873.666	1330.3	–
293.15 K, x1 = 0.8027	882.262	1327	–
293.15 K, x1 = 0.852	886.596	1325.6	–
293.15 K, x1 = 0.9007	891.001	1324.4	–
293.15 K, x1 = 0.9512	895.736	1323.4	–
298.15 K, x1 = 0.053	825.018	1344.8	6.97
298.15 K, x1 = 0.1049	–	–	6.636
298.15 K, x1 = 0.105	828.108	1342.1	–
298.15 K, x1 = 0.167	831.899	1338.4	6.076
298.15 K, x1 = 0.2004	833.978	1336.4	5.882
298.15 K, x1 = 0.2561	837.535	1333.4	5.471
298.15 K, x1 = 0.3039	840.656	1330.9	5.254
298.15 K, x1 = 0.4046	847.482	1325.9	4.678
298.15 K, x1 = 0.5013	854.363	1321.3	4.286
298.15 K, x1 = 0.6004	861.773	1316.9	3.885
298.15 K, x1 = 0.7009	869.705	1313.2	3.588
298.15 K, x1 = 0.8027	878.21	1310	3.287
298.15 K, x1 = 0.852	882.514	1308.5	3.165
298.15 K, x1 = 0.9007	886.89	1307.5	3.04
298.15 K, x1 = 0.9512	891.594	1306.5	2.901
303.15 K, x1 = 0.053	821.521	1328.1	5.789
303.15 K, x1 = 0.1049	–	–	5.499
303.15 K, x1 = 0.105	824.6	1325.4	–
303.15 K, x1 = 0.167	828.337	1321.7	5.128
303.15 K, x1 = 0.2004	830.387	1319.7	4.946
303.15 K, x1 = 0.2561	833.89	1316.7	4.656
303.15 K, x1 = 0.3039	836.962	1314.2	4.44
303.15 K, x1 = 0.4046	843.721	1309.1	4.001
303.15 K, x1 = 0.5013	850.582	1304.5	3.647
303.15 K, x1 = 0.6004	857.95	1300.3	3.31
303.15 K, x1 = 0.7009	865.804	1296.5	3.045
303.15 K, x1 = 0.8027	874.181	1293.3	2.825
303.15 K, x1 = 0.852	878.409	1292	2.734
303.15 K, x1 = 0.9007	882.718	1290.8	2.661
303.15 K, x1 = 0.9512	887.379	1289.8	2.636
308.15 K, x1 = 0.053	818.004	1311.3	5.048
308.15 K, x1 = 0.1049	–	–	4.78
308.15 K, x1 = 0.105	821.021	1308.8	–
308.15 K, x1 = 0.167	824.71	1305.5	4.442
308.15 K, x1 = 0.2004	826.746	1303.3	4.298
308.15 K, x1 = 0.2561	830.229	1300.5	4.049
308.15 K, x1 = 0.3039	833.292	1298.2	3.878
308.15 K, x1 = 0.4046	839.998	1293.1	3.519
308.15 K, x1 = 0.5013	846.771	1288.7	3.229
308.15 K, x1 = 0.6004	854.07	1284.5	2.965
308.15 K, x1 = 0.7009	861.87	1280.5	2.753
308.15 K, x1 = 0.8027	870.213	1277	2.545
308.15 K, x1 = 0.852	874.403	1275.4	2.457
308.15 K, x1 = 0.9007	878.687	1274.1	2.369
308.15 K, x1 = 0.9512	883.226	1273	2.281
313.15 K, x1 = 0.053	814.437	1294.9	–
313.15 K, x1 = 0.105	817.45	1292.3	–
313.15 K, x1 = 0.167	821.134	1289.2	–
313.15 K, x1 = 0.2004	823.153	1287.3	–
313.15 K, x1 = 0.2561	826.589	1284.5	–
313.15 K, x1 = 0.3039	829.618	1282.2	–
313.15 K, x1 = 0.4046	836.231	1277.4	–
313.15 K, x1 = 0.5013	842.934	1273	–
313.15 K, x1 = 0.6004	850.161	1268.8	–
313.15 K, x1 = 0.7009	857.881	1264.7	–
313.15 K, x1 = 0.8027	866.131	1261.1	–
313.15 K, x1 = 0.852	870.301	1259.5	–
313.15 K, x1 = 0.9007	874.538	1258	–
313.15 K, x1 = 0.9512	879.067	1256.6	–
